Values quoted from earlier work, collected in patent publication US7282225B1, “Composition and methods for improving retinal health” (Occular Technologies, Inc., priority 2006, dated 2007).
Where two headings read alike, the source gives them in different places.

Key:
[1] = tested on: animals; conditions: animal study, alpha-lipoic acid supplements
[2] = tested on: animals
[3] = tested on: rats
[4] = tested on: macular degeneration; conditions: dietary or supplement intake, case-control study
[5] = tested on: AMD; conditions: diet of 6 mg per day
[6] = healthy, young men
[7] = tested on: people; conditions: more than 750 mg/day
[8] = tested on: asthma; conditions: 1-2 g/day
[9] = tested on: bladder cancer; conditions: 500 mg daily for 10 years or more
[10] = tested on: colon cancer; conditions: 3 g/day
[11] = tested on: colon cancer; conditions: intake of more than 157 mg/day
[12] = tested on: heart disease; conditions: more than 700 mg/day versus 60 mg/day or less
[13] = tested on: monocytes; conditions: 2 g/day
[14] = tested on: patients with atherosclerosis; conditions: 2 g/day
[15] = tested on: restenosis after angioplasty; conditions: 500 mg/day
[16] = tested on: cataracts and glaucoma
[17] = tested on: AMD
[18] = tested on: age-related macular degeneration (AMD); conditions: participants at high risk (intermediate AMD, or advanced AMD in one eye only), daily oral tablets

O=C(O)CCCCC1CCSS1 (stereo not drawn) [alpha-lipoic acid, Alpha-Lipoic Acid]
side effects associated with amikacin and gentamicin [1]: reduced side effects, particularly toxicity to the ear | toxic side effects associated with cisplatin and cyclophosphamide [2]: protected against toxic side effects | cholesterol levels [3]: improved cholesterol levels | thyroid hormone function [3]: altered thyroid hormone function

CC1=C(/C=C/C(C)=C/C=C/C(C)=C/C=C/C=C(C)/C=C/C=C(C)/C=C/C2=C(C)C[C@@H](O)CC2(C)C)C(C)(C)C[C@H](O)C1 [zeaxanthin, Zeaxanthin]
association of intake with risk of macular degeneration [4]: most strongly associated with a reduced risk

Cc1c(C)c2c(c(C)c1O)CC[C@@](C)(CCC[C@H](C)CCC[C@H](C)CCCC(C)C)O2 [vitamin E, alpha-tocopherol]
association of intake with risk of macular degeneration [4]: negative effects

CC1=C[C@H](O)CC(C)(C)[C@H]1/C=C/C(C)=C/C=C/C(C)=C/C=C/C=C(C)/C=C/C=C(C)/C=C/C1=C(C)C[C@@H](O)CC1(C)C [lutein, Lutein]
lower prevalence of AMD [5]: 43% | association of intake with risk of macular degeneration [4]: most strongly associated with a reduced risk

CC1=C(/C=C/C(C)=C/C=C/C(C)=C/CO)C(C)(C)CCC1 [retinol, Retinol]
association of intake with risk of macular degeneration [4]: no effect

O=C1O[C@H]([C@@H](O)CO)C(O)=C1O [vitamin C, ascorbic acid]
minimum intake required to completely saturate the blood plasma with vitamin C [6]: ≥ 1000 mg/day | reduction of risk of dying prematurely [7]: 60% | asthma symptoms [8]: reduce asthma symptoms significantly | reduction of risk of developing bladder cancer [9]: 60% | polyp growth in colon cancer [10]: effectively prevent further polyp growth | reduction of risk of developing colon cancer [11]: 50% | lower risk of dying from heart disease [12]: 62% | adhesion of monocytes to the lining of blood vessels [13]: reduce adhesion of monocytes | vasomotor dysfunction [14]: effectively reverses | restenosis (reclosing of opened arteries) after angioplasty [15]: significantly reduced | open angle glaucoma ([16]; large doses): can be reversed | risk of cataracts and glaucoma ([16]; supplementation): significantly lower | association of intake with risk of macular degeneration [4]: little effect

[Zn] [zinc]
accumulation of drusen ([17]; zinc group): less accumulation of drusen | treatment of AMD ([17]; zinc supplements): effective

[O-2].[Zn+2] [zinc alone]
Reduced risk of developing advanced AMD [18]: about 21% | Reduced risk of vision loss [18]: about 11% | Reduced risk of developing advanced AMD ([18]; listed as Zinc Alone): AMD by about 21%. | Reduced risk of vision loss ([18]; listed as Zinc Alone): loss by about 11%.
